{
  "source": "patent EP0648123B1",
  "about": "“INHIBITORS OF PROTEIN TYROSINE-PHOSPHATASE $g(a) FOR TREATMENT OF TUMORS” (NATIONAL UNIVERSITY OF SINGAPORE, priority 1992, dated 1994)",
  "key": {"[1]": {"test_system": "α-21 cells", "experiment": "Effect of sodium orthovanadate on proliferation of PTPα-overexpressing cells (cell count)", "type": "cell-based, Fischer rat", "conditions": "for cell count, set #3 / cell count, set #2 (+0.1% FCS) / Number of cells/5 cm dish / cell count, set #1 (+10% FCS): α-21; for cell count, set #3 / Number of cells/5 cm dish / cell count, set #1 (+10% FCS): 10% FCS; for cell count, set #3: then another 48 h in 10% FCS without vanadate", "procedure": "(§1) 1. Cells were grown on 5 cm petri dishes in DME medium with 10% FCS for 48 h. After 48 h of growth, each dish of α-7, α-21, and α-29 cells contained about 0.4 x 10^5 to 0.6 x 10^5 cells, and each dish of REF-neo cells contained 1.8 x 10^5 cells. The medium was discarded, and fresh medium containing 10% FCS and the indicated concentration (below) of sodium orthovanadate was added to the cells. After 48 h of culture in this medium the cells from two replicate dishes were harvested and counted. […]\n(§2) 2. Cells (control cells = REF-neo, PTPα-overexpressing cells = α-21) were grown on 5 cm petri dishes in DME medium with 10% FCS for 48 h. The medium was discarded, and fresh medium containing 10% FCS and the indicated concentration (below) of sodium orthovanadate was added to the cells. After 72 h of culture in this medium the cells from two replicate dishes were harvested and counted. The results are shown in Table 3 below and are essentially the same as in 1 above.\n3. PTPα-overexpressing cells (α-21) were grown for 48 h (to about 60% confluency) in DME medium containing 10% FCS. The medium was removed and replaced with medium containing the indicated concentration of sodium orthovanadate (below) and either 10% (sets #1 and #3) or 0.1% FCS (set #2). The cells were cultured for 48 h and counted (sets #1 and 2), or the medium was removed from set #3 and replaced with medium containing 10% FCS without sodium orthovanadate and cultured for another 48 h before counting. […]"}, "[2]": {"test_system": "α-21 cells", "experiment": "Colony forming ability in soft agar in the presence of sodium orthovanadate", "type": "cell-based, Fischer rat", "conditions": "9 days", "procedure": "The α-21 cells were grown in soft agar in the presence of the indicated concentration of sodium orthovanadate (below) on duplicate dishes. After 9 days the colonies were counted on each dish and the approximate size of the colonies noted. […]"}, "[3]": {"test_system": "REF α-21 PTPα-overexpressing cells", "experiment": "Tumourigenesis by REF α-21 cells grown and injected with vanadate", "type": "in vivo, nude mice", "procedure": "The α-21 cells were grown in DME medium containing 10% FCS and then in DME medium with 0.1% FCS in the presence of 50 µM sodium orthovanadate for 48 h. The cells were then harvested by trypsinisation, centrifuged to pellet the cells, and the cell pellet resuspended in DME containing 50 µM sodium orthovanadate. Other α-21 cells were grown and prepared in a similar manner, except in the absence of sodium orthovanadate throughout. The resuspended cells (plus or minus vanadate) were subcutaneously injected into nude mice (2 x 10^6 cells/mouse, 4 mice for each treatment), and nine days later the tumour size was measured."}, "[4]": {"test_system": "α-29 cells", "experiment": "Effect of sodium orthovanadate on proliferation of PTPα-overexpressing cells (cell count)", "type": "cell-based, Fischer rat", "conditions": "10% FCS, 48 h", "procedure": "as §1"}, "[5]": {"test_system": "α-7 cells", "experiment": "Effect of sodium orthovanadate on proliferation of PTPα-overexpressing cells (cell count)", "type": "cell-based, Fischer rat", "conditions": "10% FCS, 48 h", "procedure": "as §1"}, "[6]": {"test_system": "REF-neo cells", "experiment": "Effect of sodium orthovanadate on proliferation of control cells (cell count)", "type": "cell-based, Fischer rat", "conditions": "10% FCS", "procedure": "as §1, §2"}},
  "note": "“And” between values parts separate entries of the source, which are not always exact repeats. Equal entries are not always repeated.",
  "data": [
    {"smiles": "[Na+].[Na+].[Na+].[O]=[V]([O-])([O-])[O-]", "note": "[Vanadate, sodium orthovanadate]", "values": [
      {"measurement": "toxicity to α-21 cells (resumption of proliferation once vanadate is removed)", "setting": "[1]; comparison of cell numbers in sets #1 and 3", "result": "not irreversibly toxic"},
      {"measurement": "cell count, set #3", "setting": "[1]; vanadate 5 µM, 48 h", "result": "2.90 x 10^6"},
      {"measurement": "cell count, set #2 (+0.1% FCS)", "setting": "[1]; vanadate 5 µM, 48 h", "result": "1.18 x 10^6"},
      {"measurement": "Number of cells/5 cm dish", "setting": "[1]; vanadate 5 µM, 48 h", "result": "1.42 x 10^6 cells/5 cm dish"},
      {"measurement": "cell count, set #1 (+10% FCS)", "setting": "[1]; vanadate 5 µM, 48 h", "result": "1.30 x 10^6"},
      {"measurement": "Number of cells/5 cm dish", "setting": "[1]; vanadate 5 µM, 72 h", "result": "1.20 x 10^6 cells/5cm dish"},
      {"measurement": "cell count, set #3", "setting": "[1]; vanadate 30 µM, 48 h", "result": "1.46 x 10^6"},
      {"measurement": "cell count, set #2 (+0.1% FCS)", "setting": "[1]; vanadate 30 µM, 48 h", "result": "5.40 x 10^5"},
      {"measurement": "Number of cells/5 cm dish", "setting": "[1]; vanadate 30 µM, 48 h", "result": "7.00 x 10^5 cells/5 cm dish"},
      {"measurement": "cell count, set #1 (+10% FCS)", "setting": "[1]; vanadate 30 µM, 48 h", "result": "5.00 x 10^5"},
      {"measurement": "Number of cells/5 cm dish", "setting": "[1]; vanadate 30 µM, 72 h", "result": "4.80 x 10^5 cells/5cm dish"},
      {"measurement": "cell count, set #3", "setting": "[1]; vanadate 60 µM, 48 h", "result": "9.60 x 10^5"},
      {"measurement": "cell count, set #2 (+0.1% FCS)", "setting": "[1]; vanadate 60 µM, 48 h", "result": "3.80 x 10^5"},
      {"measurement": "Number of cells/5 cm dish", "setting": "[1]; vanadate 60 µM, 48 h", "result": "3.70 x 10^5 cells/5 cm dish"},
      {"measurement": "cell count, set #1 (+10% FCS)", "setting": "[1]; vanadate 60 µM, 48 h", "result": "3.20 x 10^5"},
      {"measurement": "Number of cells/5 cm dish", "setting": "[1]; vanadate 60 µM, 72 h", "result": "2.60 x 10^5 cells/5cm dish"},
      {"measurement": "cell count, set #3", "setting": "[1]; vanadate 120 µM, 48 h", "result": "5.20 x 10^5"},
      {"measurement": "cell count, set #2 (+0.1% FCS)", "setting": "[1]; vanadate 120 µM, 48 h", "result": "2.00 x 10^5"},
      {"measurement": "Number of cells/5 cm dish", "setting": "[1]; vanadate 120 µM, 48 h", "result": "1.60 x 10^5 cells/5 cm dish"},
      {"measurement": "cell count, set #1 (+10% FCS)", "setting": "[1]; vanadate 120 µM, 48 h", "result": "1.80 x 10^5"},
      {"measurement": "Number of cells/5 cm dish", "setting": "[1]; vanadate 120 µM, 72 h", "result": "1.76 x 10^5 cells/5cm dish"},
      {"measurement": "Number of colonies Average", "setting": "[2]; vanadate 5 µM", "result": 1260},
      {"measurement": "Number of colonies Exp 1", "setting": "[2]; vanadate 5 µM", "result": 1127},
      {"measurement": "Number of colonies Exp 2", "setting": "[2]; vanadate 5 µM", "result": 1392},
      {"measurement": "Number of colonies Average", "setting": "[2]; vanadate 10 µM", "result": 1196},
      {"measurement": "Number of colonies Exp 1", "setting": "[2]; vanadate 10 µM", "result": 1458},
      {"measurement": "Number of colonies Exp 2", "setting": "[2]; vanadate 10 µM", "result": 934},
      {"measurement": "Number of colonies Average", "setting": "[2]; vanadate 20 µM", "result": 667},
      {"measurement": "Number of colonies Exp 1", "setting": "[2]; vanadate 20 µM", "result": 692},
      {"measurement": "Number of colonies Exp 2", "setting": "[2]; vanadate 20 µM", "result": 641},
      {"measurement": "Number of colonies Average", "setting": "[2]; vanadate 40 µM", "result": 292},
      {"measurement": "Number of colonies Exp 1", "setting": "[2]; vanadate 40 µM", "result": 312},
      {"measurement": "Number of colonies Exp 2", "setting": "[2]; vanadate 40 µM", "result": 271},
      {"measurement": "Number of colonies Average", "setting": "[2]; vanadate 80 µM", "result": 82},
      {"measurement": "Number of colonies Exp 1", "setting": "[2]; vanadate 80 µM", "result": 90},
      {"measurement": "Number of colonies Exp 2", "setting": "[2]; vanadate 80 µM", "result": 73},
      {"measurement": "average tumour size", "setting": "[3]; 4 mice, α-21 cells grown and injected with 50 µM sodium orthovanadate, nine days later", "result": 0.618, "unit": "cm^2"},
      {"measurement": "tumour size", "setting": "[3]; individual mice, α-21 cells grown and injected with 50 µM sodium orthovanadate, subcutaneous, 2 x 10^6 cells/mouse, nine days later", "result": "0.30 x 0.8 cm = 0.24 cm^2 and 0.70 x 1.5 cm = 1.05 cm^2 and 0.40 x 0.7 cm = 0.28 cm^2 and 0.75 x 1.2 cm = 0.90 cm^2"},
      {"measurement": "tumours smaller than those arising from cells grown and injected in the absence of vanadate", "setting": "[3]; on average, 50 µM sodium orthovanadate, nine days", "result": 2.6, "unit": "times"},
      {"measurement": "Number of cells/5 cm dish", "setting": "[4]; vanadate 5 µM", "result": "1.62 x 10^6 cells/5 cm dish"},
      {"measurement": "Number of cells/5 cm dish", "setting": "[4]; vanadate 30 µM", "result": "7.20 x 10^5 cells/5 cm dish"},
      {"measurement": "Number of cells/5 cm dish", "setting": "[4]; vanadate 60 µM", "result": "4.70 x 10^5 cells/5 cm dish"},
      {"measurement": "Number of cells/5 cm dish", "setting": "[4]; vanadate 120 µM", "result": "2.10 x 10^5 cells/5 cm dish"},
      {"measurement": "Number of cells/5 cm dish", "setting": "[5]; vanadate 5 µM", "result": "1.72 x 10^6 cells/5 cm dish"},
      {"measurement": "Number of cells/5 cm dish", "setting": "[5]; vanadate 30 µM", "result": "1.41 x 10^6 cells/5 cm dish"},
      {"measurement": "Number of cells/5 cm dish", "setting": "[5]; vanadate 60 µM", "result": "1.18 x 10^6 cells/5 cm dish"},
      {"measurement": "Number of cells/5 cm dish", "setting": "[5]; vanadate 120 µM", "result": "5.80 x 10^5 cells/5 cm dish"},
      {"measurement": "Number of cells/5 cm dish", "setting": "[6]; vanadate 5 µM, 48 h", "result": "1.10 x 10^6 cells/5 cm dish"},
      {"measurement": "Number of cells/5 cm dish", "setting": "[6]; vanadate 5 µM, 72 h", "result": "1.90 x 10^6 cells/5cm dish"},
      {"measurement": "Number of cells/5 cm dish", "setting": "[6]; vanadate 30 µM, 48 h", "result": "1.04 x 10^6 cells/5 cm dish"},
      {"measurement": "Number of cells/5 cm dish", "setting": "[6]; vanadate 30 µM, 72 h", "result": "1.80 x 10^6 cells/5cm dish"},
      {"measurement": "Number of cells/5 cm dish", "setting": "[6]; vanadate 60 µM, 48 h", "result": "9.90 x 10^5 cells/5 cm dish"},
      {"measurement": "Number of cells/5 cm dish", "setting": "[6]; vanadate 60 µM, 72 h", "result": "1.60 x 10^6 cells/5cm dish"},
      {"measurement": "Number of cells/5 cm dish", "setting": "[6]; vanadate 120 µM, 48 h", "result": "7.60 x 10^5 cells/5 cm dish"},
      {"measurement": "Number of cells/5 cm dish", "setting": "[6]; vanadate 120 µM, 72 h", "result": "6.70 x 10^5 cells/5cm dish"}
    ]}
  ]
}
